According to article PMC11882969 (Nature Communications, 2025):
Converted amounts (≈) assume the structure as drawn. “And” between values parts separate entries of the source, which are not always exact repeats. Equal entries are not always repeated. Where two headings read alike, the source gives them in different places.

Key:
[1] = biological target: panel of 320 non-olfactory GPCRs (Homo sapiens, UniProt O14843); assay type: cell-based
[2] = biological target: panel of 320 non-olfactory GPCRs (Homo sapiens, UniProt O95665); assay type: cell-based
[3] = biological target: panel of 320 non-olfactory GPCRs (Homo sapiens, UniProt P34998); assay type: cell-based
[4] = biological target: panel of 320 non-olfactory GPCRs (Homo sapiens, UniProt Q8IZ08); assay type: cell-based
Sequence of panel of 320 non-olfactory GPCRs (Homo sapiens, UniProt Q8IZ08) (Q8IZ08 whole entry): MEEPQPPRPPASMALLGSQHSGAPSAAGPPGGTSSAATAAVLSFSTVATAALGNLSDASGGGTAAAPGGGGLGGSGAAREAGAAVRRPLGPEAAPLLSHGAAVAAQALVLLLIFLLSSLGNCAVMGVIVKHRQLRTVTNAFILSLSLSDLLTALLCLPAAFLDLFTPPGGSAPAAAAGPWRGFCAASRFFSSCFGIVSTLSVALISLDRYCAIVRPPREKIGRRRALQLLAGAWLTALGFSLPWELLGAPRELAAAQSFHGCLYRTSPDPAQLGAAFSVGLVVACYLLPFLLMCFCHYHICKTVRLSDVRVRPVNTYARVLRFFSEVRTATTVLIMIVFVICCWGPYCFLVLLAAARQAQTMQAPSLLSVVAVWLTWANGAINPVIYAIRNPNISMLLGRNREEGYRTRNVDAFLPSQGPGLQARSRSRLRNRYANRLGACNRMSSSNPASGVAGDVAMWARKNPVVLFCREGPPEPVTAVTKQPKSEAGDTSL

[5] = biological target: panel of 320 non-olfactory GPCRs (Homo sapiens, UniProt Q96CH1); assay type: cell-based
Sequence of panel of 320 non-olfactory GPCRs (Homo sapiens, UniProt Q96CH1) (Q96CH1 whole entry): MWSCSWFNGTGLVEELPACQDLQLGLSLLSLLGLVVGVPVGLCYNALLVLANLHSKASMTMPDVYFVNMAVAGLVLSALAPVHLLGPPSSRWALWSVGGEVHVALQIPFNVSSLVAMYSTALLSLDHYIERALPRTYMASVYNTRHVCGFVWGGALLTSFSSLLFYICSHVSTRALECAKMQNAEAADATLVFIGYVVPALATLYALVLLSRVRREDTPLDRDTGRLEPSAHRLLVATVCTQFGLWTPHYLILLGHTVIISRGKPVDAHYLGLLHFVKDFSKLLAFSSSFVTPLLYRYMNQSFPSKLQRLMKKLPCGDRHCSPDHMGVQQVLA

[6] = biological target: panel of 320 non-olfactory GPCRs (Homo sapiens, UniProt Q99705); assay type: cell-based
[7] = biological target: panel of 320 non-olfactory GPCRs (Homo sapiens, UniProt Q9H3N8); assay type: cell-based
Sequence of panel of 320 non-olfactory GPCRs (Homo sapiens, UniProt Q9H3N8) (Q9H3N8 whole entry): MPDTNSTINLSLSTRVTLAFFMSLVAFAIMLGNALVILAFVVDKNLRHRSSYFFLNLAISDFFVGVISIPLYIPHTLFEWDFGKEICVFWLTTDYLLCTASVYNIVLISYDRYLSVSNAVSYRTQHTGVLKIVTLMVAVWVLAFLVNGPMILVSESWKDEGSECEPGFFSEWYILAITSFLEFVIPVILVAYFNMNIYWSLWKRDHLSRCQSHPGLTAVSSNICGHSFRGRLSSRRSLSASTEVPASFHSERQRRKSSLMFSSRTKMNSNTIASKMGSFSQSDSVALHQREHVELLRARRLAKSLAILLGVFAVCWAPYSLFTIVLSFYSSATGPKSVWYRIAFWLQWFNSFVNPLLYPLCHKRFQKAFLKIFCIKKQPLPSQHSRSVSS

[8] = biological target: panel of 320 non-olfactory GPCRs (Homo sapiens, UniProt Q9UPC5); assay type: cell-based
Sequence of panel of 320 non-olfactory GPCRs (Homo sapiens, UniProt Q9UPC5) (Q9UPC5 whole entry): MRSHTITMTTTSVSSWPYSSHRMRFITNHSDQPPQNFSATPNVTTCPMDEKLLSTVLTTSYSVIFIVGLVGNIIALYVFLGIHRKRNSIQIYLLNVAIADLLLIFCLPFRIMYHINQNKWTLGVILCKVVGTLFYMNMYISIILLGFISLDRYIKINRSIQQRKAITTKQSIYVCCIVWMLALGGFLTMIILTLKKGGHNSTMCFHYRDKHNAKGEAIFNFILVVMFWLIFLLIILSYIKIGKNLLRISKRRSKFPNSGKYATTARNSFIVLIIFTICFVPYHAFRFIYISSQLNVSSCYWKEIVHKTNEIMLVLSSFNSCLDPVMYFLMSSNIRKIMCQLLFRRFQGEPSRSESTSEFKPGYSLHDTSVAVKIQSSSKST

[9] = tested on: mice; assay: Hargreaves radiant heat test; assay type: in vivo, mouse; conditions: for Dose response, individual animals (FigS11a): test not printed on the sheet
[10] = tested on: mice; assay: CFA inflammatory pain model; assay type: in vivo, mouse
Procedure: The CFA model of chronic inflammation was induced as described previously. Briefly, CFA (Sigma) was diluted 1:1 with saline and vortexed for 30 min. When fully suspended, we injected 20 μL of CFA into one hindpaw. Heat thresholds were measured before the injection (baseline) and 3 days after the injection using the Hargreaves test.

[11] = tested on: mice; assay: Conditioned place preference; assay type: in vivo, mouse
Procedure: Briefly, mice were first habituated to the test apparatus, twice, and their preference for each chamber recorded for 30 min (Pretest). Two conditioning days followed in which mice received the vehicle control or the compound, and 30 min later restricted for 30 min in the preferred or non-preferred chamber, respectively. On day 5 (Test day), mice were allowed to roam freely between the 3 chambers of the apparatus and their preference for each chamber recorded for 30 min. To calculate the CPP score, we subtracted the time spent in each chamber of the box on the Pretest day from that of the Test day (CPP score = Test - Pretest).

[12] = tested on: mice; assay: Formalin test; assay type: in vivo, mouse; conditions: for formalin test response per time bin (Figure5c), individual animals: 0.2 mg/kg
Procedure: Thirty min after an i.p. injection of the compounds, mice received an intraplantar injection of a 20μL solution containing 2% formalin (Acros Organics) and we recorded the time mice spent licking/biting/guarding (nocifensive behaviors) the injected hindpaw over the next 60 min.

[13] = mouse plasma, 1.0 µM
[14] = relative to 100 at 0 min
[15] = physchem; conditions: phosphate-buffered saline, 25 °C, pH 7.4, aqueous buffer, kinetic from dmso stock
[16] = in vitro; conditions: mouse, plasma
[17] = tested on: P-gp (human MDR1); assay: in vitro; conditions: dog, MDCK-MDR1, pH 7.4
[18] = biological target: hCB1 (Homo sapiens, UniProt P21554); assay: Cerep HTRF cAMP inhibition assay, hCB1 CHO-K1; assay type: cell-based; set-up: host or cells: HEK293SL cells, transient PEI transfection
[19] = biological target: panel of 320 non-olfactory GPCRs (Homo sapiens, UniProt O60883); assay type: cell-based
Sequence of panel of 320 non-olfactory GPCRs (Homo sapiens, UniProt O60883) (O60883 26-481): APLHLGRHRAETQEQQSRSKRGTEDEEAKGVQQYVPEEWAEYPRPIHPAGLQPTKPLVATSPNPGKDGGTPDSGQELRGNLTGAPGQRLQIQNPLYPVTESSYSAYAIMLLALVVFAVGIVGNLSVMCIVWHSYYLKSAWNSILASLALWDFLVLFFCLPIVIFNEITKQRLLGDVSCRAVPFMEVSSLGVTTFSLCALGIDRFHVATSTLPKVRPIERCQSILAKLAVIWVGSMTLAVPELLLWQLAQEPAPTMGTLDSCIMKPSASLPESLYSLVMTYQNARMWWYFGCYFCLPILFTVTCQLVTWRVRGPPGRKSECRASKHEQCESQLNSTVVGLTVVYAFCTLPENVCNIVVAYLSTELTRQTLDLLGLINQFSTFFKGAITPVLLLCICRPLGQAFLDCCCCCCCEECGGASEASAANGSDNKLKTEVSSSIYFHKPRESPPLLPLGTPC

[20] = biological target: panel of 320 non-olfactory GPCRs (Homo sapiens, UniProt P08908); assay type: cell-based
Sequence of panel of 320 non-olfactory GPCRs (Homo sapiens, UniProt P08908) (P08908 whole entry): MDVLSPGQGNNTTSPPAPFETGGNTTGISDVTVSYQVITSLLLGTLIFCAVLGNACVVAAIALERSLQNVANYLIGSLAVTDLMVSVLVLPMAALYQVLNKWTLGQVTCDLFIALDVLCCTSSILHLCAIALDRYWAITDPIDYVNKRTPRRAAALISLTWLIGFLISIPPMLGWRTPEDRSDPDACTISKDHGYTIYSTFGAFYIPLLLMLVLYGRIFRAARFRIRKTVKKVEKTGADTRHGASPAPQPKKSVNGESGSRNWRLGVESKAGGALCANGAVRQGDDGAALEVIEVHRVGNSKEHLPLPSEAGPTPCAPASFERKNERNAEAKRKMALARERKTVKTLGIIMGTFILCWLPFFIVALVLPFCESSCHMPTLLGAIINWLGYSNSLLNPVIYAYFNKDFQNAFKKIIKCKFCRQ

[21] = biological target: panel of 320 non-olfactory GPCRs (Homo sapiens, UniProt P25021); assay type: cell-based
Sequence of panel of 320 non-olfactory GPCRs (Homo sapiens, UniProt P25021) (P25021 whole entry): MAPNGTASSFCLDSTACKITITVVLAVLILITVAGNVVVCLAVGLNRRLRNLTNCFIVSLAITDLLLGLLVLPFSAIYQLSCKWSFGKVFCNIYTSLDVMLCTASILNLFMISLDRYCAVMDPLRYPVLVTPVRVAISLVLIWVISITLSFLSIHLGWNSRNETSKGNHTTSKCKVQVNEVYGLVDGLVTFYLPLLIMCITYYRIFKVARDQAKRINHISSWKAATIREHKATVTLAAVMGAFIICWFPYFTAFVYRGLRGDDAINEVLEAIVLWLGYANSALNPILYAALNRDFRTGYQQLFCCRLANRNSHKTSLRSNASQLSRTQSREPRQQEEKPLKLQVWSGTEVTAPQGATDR

[22] = biological target: panel of 320 non-olfactory GPCRs (Homo sapiens, UniProt P30559); assay type: cell-based
[23] = biological target: panel of 320 non-olfactory GPCRs (Homo sapiens, UniProt P47900); assay type: cell-based
Sequence of panel of 320 non-olfactory GPCRs (Homo sapiens, UniProt P47900) (P47900 whole entry): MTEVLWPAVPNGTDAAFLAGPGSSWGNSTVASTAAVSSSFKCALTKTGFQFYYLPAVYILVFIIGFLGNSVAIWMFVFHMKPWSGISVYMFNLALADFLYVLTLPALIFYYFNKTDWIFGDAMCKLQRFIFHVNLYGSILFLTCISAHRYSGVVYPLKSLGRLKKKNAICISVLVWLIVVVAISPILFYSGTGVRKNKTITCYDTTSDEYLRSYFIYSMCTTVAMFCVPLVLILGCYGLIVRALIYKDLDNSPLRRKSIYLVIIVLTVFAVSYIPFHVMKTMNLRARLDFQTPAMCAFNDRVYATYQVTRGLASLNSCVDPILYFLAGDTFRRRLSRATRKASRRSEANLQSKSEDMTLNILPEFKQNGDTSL

[24] = biological target: panel of 320 non-olfactory GPCRs (Homo sapiens, UniProt Q8IWK6); assay type: cell-based
[25] = biological target: panel of 320 non-olfactory GPCRs (Homo sapiens, UniProt Q8TDV5); assay type: cell-based
[26] = biological target: panel of 320 non-olfactory GPCRs (Homo sapiens, UniProt Q96LA9); assay type: cell-based
[27] = biological target: panel of 320 non-olfactory GPCRs (Homo sapiens, UniProt Q9H1C0); assay type: cell-based
Sequence of panel of 320 non-olfactory GPCRs (Homo sapiens, UniProt Q9H1C0) (Q9H1C0 whole entry): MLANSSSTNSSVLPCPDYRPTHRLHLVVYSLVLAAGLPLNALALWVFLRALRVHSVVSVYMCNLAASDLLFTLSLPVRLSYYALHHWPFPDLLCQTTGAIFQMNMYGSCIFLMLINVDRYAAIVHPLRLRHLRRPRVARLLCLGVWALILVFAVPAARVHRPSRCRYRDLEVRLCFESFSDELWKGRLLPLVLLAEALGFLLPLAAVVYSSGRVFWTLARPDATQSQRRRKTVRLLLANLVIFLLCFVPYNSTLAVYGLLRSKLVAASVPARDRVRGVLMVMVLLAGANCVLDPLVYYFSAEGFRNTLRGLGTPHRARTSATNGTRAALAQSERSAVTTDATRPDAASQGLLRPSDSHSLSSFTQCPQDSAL

[28] = biological target: panel of 320 non-olfactory GPCRs (Homo sapiens, UniProt Q9HBX9); assay type: cell-based
Sequence of panel of 320 non-olfactory GPCRs (Homo sapiens, UniProt Q9HBX9) (Q9HBX9 whole entry): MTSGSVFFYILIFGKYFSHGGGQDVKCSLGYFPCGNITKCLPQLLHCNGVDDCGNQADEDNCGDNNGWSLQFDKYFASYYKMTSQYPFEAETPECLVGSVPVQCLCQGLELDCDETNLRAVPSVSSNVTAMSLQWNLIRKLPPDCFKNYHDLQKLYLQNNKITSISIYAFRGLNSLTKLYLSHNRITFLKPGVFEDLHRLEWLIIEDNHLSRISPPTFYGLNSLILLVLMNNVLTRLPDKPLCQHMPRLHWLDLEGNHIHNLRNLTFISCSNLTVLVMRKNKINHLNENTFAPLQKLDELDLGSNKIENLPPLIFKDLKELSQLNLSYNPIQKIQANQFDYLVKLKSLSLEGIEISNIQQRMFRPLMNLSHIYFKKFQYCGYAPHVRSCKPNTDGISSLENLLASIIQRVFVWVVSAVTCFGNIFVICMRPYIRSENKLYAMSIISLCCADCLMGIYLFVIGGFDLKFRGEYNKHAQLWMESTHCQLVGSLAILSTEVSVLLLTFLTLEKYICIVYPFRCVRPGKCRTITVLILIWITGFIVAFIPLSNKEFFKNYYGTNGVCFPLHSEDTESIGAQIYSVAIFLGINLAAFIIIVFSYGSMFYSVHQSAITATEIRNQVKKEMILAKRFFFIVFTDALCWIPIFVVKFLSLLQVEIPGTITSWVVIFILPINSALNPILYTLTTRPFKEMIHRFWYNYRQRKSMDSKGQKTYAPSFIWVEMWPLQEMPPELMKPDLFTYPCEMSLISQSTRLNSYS

Sequence of panel of 320 non-olfactory GPCRs (Homo sapiens, UniProt O14843) (O14843 whole entry): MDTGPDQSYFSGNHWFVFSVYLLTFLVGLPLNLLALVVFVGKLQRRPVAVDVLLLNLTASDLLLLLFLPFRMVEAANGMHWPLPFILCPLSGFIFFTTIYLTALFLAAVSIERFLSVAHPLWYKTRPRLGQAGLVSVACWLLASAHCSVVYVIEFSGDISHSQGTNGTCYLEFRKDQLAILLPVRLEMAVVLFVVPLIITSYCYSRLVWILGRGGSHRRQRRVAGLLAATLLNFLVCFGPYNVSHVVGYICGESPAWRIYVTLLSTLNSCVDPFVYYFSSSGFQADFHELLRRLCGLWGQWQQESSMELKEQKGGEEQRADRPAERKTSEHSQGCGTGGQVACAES

COC(=O)[C@@](C)(NC(=O)c1cc(C)n(-c2cccc(C(F)(F)F)c2)n1)c1cccs1 [‘1350]
Fold of Basal RLU [1]: 0.6 and 0.8 and 1.1 | Fold of Basal RLU [2]: 1.2 and 1 and 0.7 and 0.8 | Fold of Basal RLU [3]: 0.7 and 0.9 | Fold of Basal RLU [4]: 1.2 and 0.9 and 1.6 | Fold of Basal RLU [5]: 0.6 and 0.7 and 0.8 | Fold of Basal RLU [6]: 1.3 and 1.1 and 0.7 | Fold of Basal RLU [7]: 1.6 fold and 1.4 fold and 2.4 fold and 1.5 fold | Fold of Basal RLU [8]: 0.7 fold and 1 fold and 1.1 fold and 1.4 fold | Dose response, individual animals (FigS11a) ([9]; Dose 0.05 mg/kg): 70.2102 and 59.9464 and 116.769 and 106.654 and 53.8477 | Dose response, individual animals (FigS11a) ([9]; Dose 0.1 mg/kg): 178.501 and 115.43 and 147.263 and 156.486 | Dose response, individual animals (FigS11a) ([9]; Dose 0.2 mg/kg): 166.452 and 178.501 | lowest dose with significantly increased latency, Hargreaves ([9]; i.p., 30 min after injection): 0.1 mg/kg | effect on paw withdrawal latency after CFA ([10]; 0.2 mg/kg i.p.): increasing paw withdrawal latencies to well-above pre-CFA baseline thresholds | CFA inflammatory pain response normalised to baseline (Figure5a), individual animals ([10]; 0.2 mg/kg, CFA-treated mice): 134.669 and 178.501 and 55.3352 and 183.627 and 40.7039 and 122.724 and 119 | Individual animal scores (FigS11e) ([11]; 0.2 mg/kg, test not printed on the sheet): 289 and 48 and 256 and -101 and 11 and -145 and -65 and -179 | conditioned place preference ([11]; drug-paired vs vehicle-paired chamber): does not induce preference | effect on formalin nocifensive behaviors ([12]; 0.2 mg/kg i.p., 60 min): profoundly decreased the duration of both phase 1 and phase 2 nocifensive behaviors | formalin test response per time bin (Figure5c), individual animals ([12]; Time 0 min): 0 | formalin test response per time bin (Figure5c), individual animals ([12]; Time 5 min): 47.9 and 64.7 and 87.7 and 92.8 and 88.1 | formalin test response per time bin (Figure5c), individual animals ([12]; Time 10 min): 0 (4×) and 6.3 | formalin test response per time bin (Figure5c), individual animals ([12]; Time 15 min): 0 (3×) and 1.5 and 2.3 | formalin test response per time bin (Figure5c), individual animals ([12]; Time 20 min): 2.9 and 0 (3×) and 3.6 | formalin test response per time bin (Figure5c), individual animals ([12]; Time 25 min): 1.9 and 13.6 and 0 (2×) and 21.9 | formalin test response per time bin (Figure5c), individual animals ([12]; Time 30 min): 0 (2×) and 85 and 92.7 and 5.3 | formalin test response per time bin (Figure5c), individual animals ([12]; Time 35 min): 1.8 and 59 and 0 (2×) and 91.5 | formalin test response per time bin (Figure5c), individual animals ([12]; Time 40 min): 2.3 and 173.3 and 5.2 and 106.7 and 40.7 | formalin test response per time bin (Figure5c), individual animals ([12]; Time 45 min): 3.9 and 181.8 and 5.2 and 10 and 11.7 | formalin test response per time bin (Figure5c), individual animals ([12]; Time 50 min): 8.3 and 48.5 and 11.2 and 3.8 and 50.2 | formalin test response per time bin (Figure5c), individual animals ([12]; Time 55 min): 40.3 and 35.4 and 0 (3×) | formalin test response per time bin (Figure5c), individual animals ([12]; Time 60 min): 2.4 and 30.9 and 0 (3×) | Mean % of bound compound [13]: 94% | Stability ([13]; 5 h): 11% | Stability time course, Mean (FS10f) ([14]; Time 0 min): 100 | Stability time course, Mean (FS10f) ([14]; Time 7 min): 13.0354 | Stability time course, Mean (FS10f) ([14]; Time 15 min): 0.461 | Stability time course, Mean (FS10f) ([14]; Time 25 min): 0.1608 | Stability time course, Mean (FS10f) ([14]; Time 40 min): 0.1274 | solubility at 2 h [15]: 23 µM (≈ 10.1 µg/mL) | half-life at 1 µM [16]: 41 min | remaining at 20 min, 1 µM [16]: 84% | remaining at 40 min, 1 µM [16]: 66% | remaining at 1 h, 1 µM [16]: 48% | remaining at 2 h, 1 µM [16]: 14% | efflux ratio at 90 min, 10 μM [17]: 1.3

COC(=O)C(C)(NC(=O)c1cc(C)n(-c2cccc(C(F)(F)F)c2)n1)c1cccs1 (centres unmarked) [‘4042]
Emax ([18]; CHO-K1): 96% | Cerep cAMP pEC50 ([18]; hCB1): 11.1

Cc1cc(C(=O)NC(C)(c2ccco2)c2ccco2)nn1-c1cccc(C(F)(F)F)c1 [‘4936]
Fold of Basal RLU [19]: 0.5 fold and 0.9 fold and 0.6 fold | Fold of Basal RLU [20]: 0.8 fold and 0.7 fold and 0.6 fold | Fold of Basal RLU [21]: 1 and 1.2 and 1.1 and 0.6 | Fold of Basal RLU [22]: 0.9 and 0.8 and 1 | Fold of Basal RLU [23]: 1.1 fold and 0.9 fold and 0.7 fold and 1 fold | Fold of Basal RLU [24]: 0.7 fold and 1 fold | Fold of Basal RLU [25]: 0.8 and 1.3 | Fold of Basal RLU [26]: 0.6 and 0.8 and 1.1 | Fold of Basal RLU [27]: 0.7 and 0.4 and 0.6 | Fold of Basal RLU [28]: 0.9 and 1.1 and 1.7 and 1.3
